In patent US20090018111A1, “Novel Antimicrobial Medicament” (priority 2004, published 2009):
Read-outs that look alike come from different tables or passages of the source.

Tests used:
Assay in all cases: Sensitivity test (agar dilution), clinical isolate
[1] = system: Acinetobacter spp. Jan-81; type: cell-based, Acinetobacter calcoaceticus and Acinetobacter lwoffi
Procedure: (§1) In addition, the antibacterial activities were tested against strains which are comparatively less sensitive to β-lactam compounds, namely clinically isolated 13 strains of Acinetobacter calcoaceticus and Acinetobacter lwoffi, clinically isolated 11 strains of Serratia marcescens, clinically isolated 12 strains of Burkholderia cepacia, and clinically isolated 15 strains of Pseudomonas aeruginosa.
(§2) According to the standard method of Japan Chemotherapeutic Society (Chemotherapy, vol. […], p 76-79 (1981)) the test was carried out using the agar dilution method. After dissolving test samples in distilled water, agar medium containing the test samples was prepared in such a manner that the final concentration became twice serial dilution by pouring serially diluted combination drug solution or a single drug solution into agar medium. As agar medium was used Mueller Hinton Agar medium (MHA). Then, each strain was cultivated over night at 37° C. in an incubator and suspended in buffered saline solution with gelatin (BSG) in the concentration of about 10^6 CFU/ml. The suspension (about 5 μl) containing test strains was inoculated to the medium containing the test samples by Micro Planter.
(§3) Each drug was weighed, and dissolved in distilled water to give a test sample. When the drugs are used in combination, two kinds of solution containing each drug were mixed so as to be various ratio of concentration to give a mixed solution. When the sample is subjected to sensitivity test, this mixed solution was diluted by twice serial dilution method.
(§4) Furthermore, when the drug is solely used, each test sample was used as it is, and diluted by twice serial dilution method from the maximum concentration to the minimum concentration.

[2] = system: Acinetobacter spp. Jan-54; type: cell-based, Acinetobacter calcoaceticus and Acinetobacter lwoffi
Procedure: as §1, §2, §3, §4

[3] = system: Acinetobacter spp. 1338-2; type: cell-based, Acinetobacter calcoaceticus and Acinetobacter lwoffi; conditions: read-out: MIC
Procedure: as §1, §2, §3, §4

[4] = system: Acinetobacter spp. Jan-99; type: cell-based, Acinetobacter calcoaceticus and Acinetobacter lwoffi; conditions: Acinetobacter, read-out: MIC
Procedure: as §1, §2, §3, §4

Acinetobacter spp. 256 = type: cell-based, Acinetobacter calcoaceticus and Acinetobacter lwoffi
Procedure: as §1, §2, §3, §4

[5] = system: Acinetobacter spp. 1398-2; type: cell-based, Acinetobacter calcoaceticus and Acinetobacter lwoffi
Procedure: as §1, §2, §3, §4

[6] = system: Acinetobacter spp. 1399-2; type: cell-based, Acinetobacter calcoaceticus and Acinetobacter lwoffi
Procedure: as §1, §2, §3, §4

Acinetobacter spp. 227-1 = type: cell-based, Acinetobacter calcoaceticus and Acinetobacter lwoffi
Procedure: as §1, §2, §3, §4

Acinetobacter spp. 1198 = type: cell-based, Acinetobacter calcoaceticus and Acinetobacter lwoffi; conditions: read-out: MIC
Procedure: as §1, §2, §3, §4

Acinetobacter spp. 14712 = type: cell-based, Acinetobacter calcoaceticus and Acinetobacter lwoffi
Procedure: as §1, §2, §3, §4

[7] = system: Acinetobacter spp. Jan-99 (second line, r15); type: cell-based, Acinetobacter calcoaceticus and Acinetobacter lwoffi; conditions: read-out: MIC
Procedure: as §1, §2, §3, §4

Acinetobacter spp. 1195 = type: cell-based, Acinetobacter calcoaceticus and Acinetobacter lwoffi; conditions: read-out: MIC
Procedure: as §1, §2, §3, §4

Acinetobacter spp. 175 = type: cell-based, Acinetobacter calcoaceticus and Acinetobacter lwoffi; conditions: Acinetobacter, read-out: MIC
Procedure: as §1, §2, §3, §4

B. cepacia 257-1 = type: cell-based, Burkholderia cepacia
Procedure: as §1, §2, §3, §4

B. cepacia 7438 = type: cell-based, Burkholderia cepacia
Procedure: as §1, §2, §3, §4

Compound: C[C@H]1C=C(c2csc(SC3=C(C(=O)O)N4C(=O)[C@H]([C@@H](C)O)[C@H]4[C@H]3C)n2)CN1 [SM, (4R,5S,6S)-6-[(1R)-1-Hydroxyethyl]-4-methyl-3-({4-[(5S)-5-methyl-2,5-dihydro-1H-pyrrol-3-yl]-1,3-thiazol-2-yl}sulfanyl)-7-oxo-1-azabicyclo[3.2.0]hept-2-ene-2-carboxylic acid]
- MIC ([1]; Concomitant (ME:SM = 1:1)): 8 µg/mL
- MIC ([1]; Concomitant (ME:SM = 1:2)): 4 µg/mL
- MIC ([1]; Concomitant (ME:SM = 1:4)): 8 µg/mL
- MIC ([1]; Concomitant (ME:SM = 2:1)): 2 µg/mL
- MIC ([1]; alone): 32 µg/mL
- MIC ([2]; Concomitant (ME:SM = 1:1)): 0.5 µg/mL
- MIC ([2]; Concomitant (ME:SM = 1:2)): 1 µg/mL
- MIC ([2]; Concomitant (ME:SM = 1:4)): 1 µg/mL
- MIC ([2]; Concomitant (ME:SM = 2:1)): 0.25 µg/mL
- MIC ([2]; alone): 2 µg/mL
- MIC ([3]; SPP.13382, Concomitant (ME:SM = 1:1)): 0.5 µg/mL
- MIC ([3]; SPP.13382, Concomitant (ME:SM = 1:2)): 1 µg/mL
- MIC ([3]; SPP.13382, Concomitant (ME:SM = 1:4)): 0.5 µg/mL
- MIC ([3]; SPP.13382, Concomitant (ME:SM = 2:1)): 0.25 µg/mL
- MIC ([3]; SPP.13382, alone): 0.5 µg/mL
- MIC ([4]; Concomitant (ME:SM = 1:1)): 0.25 µg/mL
- MIC ([4]; Concomitant (ME:SM = 1:2)): 0.25 µg/mL
- MIC ([4]; Concomitant (ME:SM = 1:4)): 0.5 µg/mL
- MIC ([4]; Concomitant (ME:SM = 2:1)): 0.125 µg/mL
- MIC ([4]; alone): 0.5 µg/mL
- MIC (Acinetobacter spp. 256; SPP.256, Concomitant (ME:SM = 1:1)): 0.5 µg/mL
- MIC (Acinetobacter spp. 256; SPP.256, Concomitant (ME:SM = 1:2)): 1 µg/mL
- MIC (Acinetobacter spp. 256; SPP.256, Concomitant (ME:SM = 1:4)): 1 µg/mL
- MIC (Acinetobacter spp. 256; SPP.256, Concomitant (ME:SM = 2:1)): 0.25 µg/mL
- MIC (Acinetobacter spp. 256; SPP.256, alone): 1 µg/mL
- MIC ([5]; SPP.13982, Concomitant (ME:SM = 1:1)): 2 µg/mL
- MIC ([5]; SPP.13982, Concomitant (ME:SM = 1:2)): 4 µg/mL
- MIC ([5]; SPP.13982, Concomitant (ME:SM = 1:4)): 4 µg/mL
- MIC ([5]; SPP.13982, Concomitant (ME:SM = 2:1)): 2 µg/mL
- MIC ([5]; SPP.13982, alone): 8 µg/mL
- MIC ([6]; SPP.13992, Concomitant (ME:SM = 1:1)): 0.5 µg/mL
- MIC ([6]; SPP.13992, Concomitant (ME:SM = 1:2)): 1 µg/mL
- MIC ([6]; SPP.13992, Concomitant (ME:SM = 1:4)): 1 µg/mL
- MIC ([6]; SPP.13992, Concomitant (ME:SM = 2:1)): 0.25 µg/mL
- MIC ([6]; SPP.13992, alone): 2 µg/mL
- MIC (Acinetobacter spp. 227-1; SPP.2271, Concomitant (ME:SM = 1:1)): 0.5 µg/mL
- MIC (Acinetobacter spp. 227-1; SPP.2271, Concomitant (ME:SM = 1:2)): 1 µg/mL
- MIC (Acinetobacter spp. 227-1; SPP.2271, Concomitant (ME:SM = 1:4)): 1 µg/mL
- MIC (Acinetobacter spp. 227-1; SPP.2271, Concomitant (ME:SM = 2:1)): 0.25 µg/mL
- MIC (Acinetobacter spp. 227-1; SPP.2271, alone): 2 µg/mL
- MIC (Acinetobacter spp. 1198; SPP.1198, Concomitant (ME:SM = 1:1)): 0.25 µg/mL
- MIC (Acinetobacter spp. 1198; SPP.1198, Concomitant (ME:SM = 1:2)): 0.25 µg/mL
- MIC (Acinetobacter spp. 1198; SPP.1198, Concomitant (ME:SM = 1:4)): 0.25 µg/mL
- MIC (Acinetobacter spp. 1198; SPP.1198, Concomitant (ME:SM = 2:1)): 0.125 µg/mL
- MIC (Acinetobacter spp. 1198; SPP.1198, alone): 0.5 µg/mL
- MIC (Acinetobacter spp. 14712; SPP.14712, Concomitant (ME:SM = 1:1)): 0.5 µg/mL
- MIC (Acinetobacter spp. 14712; SPP.14712, Concomitant (ME:SM = 1:2)): 1 µg/mL
- MIC (Acinetobacter spp. 14712; SPP.14712, Concomitant (ME:SM = 1:4)): 1 µg/mL
- MIC (Acinetobacter spp. 14712; SPP.14712, Concomitant (ME:SM = 2:1)): 0.25 µg/mL
- MIC (Acinetobacter spp. 14712; SPP.14712, alone): 2 µg/mL
- MIC ([7]; Concomitant (ME:SM = 1:1)): 0.5 µg/mL
- MIC ([7]; Concomitant (ME:SM = 1:2)): 0.5 µg/mL
- MIC ([7]; Concomitant (ME:SM = 1:4)): 0.5 µg/mL
- MIC ([7]; Concomitant (ME:SM = 2:1)): 0.25 µg/mL
- MIC ([7]; alone): 2 µg/mL
- MIC (Acinetobacter spp. 1195; SPP.1195, Concomitant (ME:SM = 1:1)): 0.25 µg/mL
- MIC (Acinetobacter spp. 1195; SPP.1195, Concomitant (ME:SM = 1:2)): 0.25 µg/mL
- MIC (Acinetobacter spp. 1195; SPP.1195, Concomitant (ME:SM = 1:4)): 0.25 µg/mL
- MIC (Acinetobacter spp. 1195; SPP.1195, Concomitant (ME:SM = 2:1)): 0.125 µg/mL
- MIC (Acinetobacter spp. 1195; SPP.1195, alone): 0.5 µg/mL
- MIC (Acinetobacter spp. 175; SPP.175, Concomitant (ME:SM = 1:1)): 0.125 µg/mL
- MIC (Acinetobacter spp. 175; SPP.175, Concomitant (ME:SM = 1:2)): 0.125 µg/mL
- MIC (Acinetobacter spp. 175; SPP.175, Concomitant (ME:SM = 1:4)): 0.25 µg/mL
- MIC (Acinetobacter spp. 175; SPP.175, Concomitant (ME:SM = 2:1)): 0.063 µg/mL
- MIC (Acinetobacter spp. 175; SPP.175, alone): 0.5 µg/mL
- MIC (B. cepacia 257-1; Burkholderia cepacia, 2571, Concomitant (ME:SM = 1:1)): 0.5 µg/mL
- MIC (B. cepacia 257-1; Burkholderia cepacia, 2571, Concomitant (ME:SM = 1:2)): 0.5 µg/mL
- MIC (B. cepacia 257-1; Burkholderia cepacia, 2571, Concomitant (ME:SM = 1:4)): 1 µg/mL
- MIC (B. cepacia 257-1; Burkholderia cepacia, 2571, Concomitant (ME:SM = 2:1)): 0.25 µg/mL
- MIC (B. cepacia 257-1; Burkholderia cepacia, 2571, alone): 4 µg/mL
- MIC (B. cepacia 7438; Burkholderia cepacia, 7438, Concomitant (ME:SM = 1:1)): 2 µg/mL
- MIC (B. cepacia 7438; Burkholderia cepacia, 7438, Concomitant (ME:SM = 1:2)): 2 µg/mL
- MIC (B. cepacia 7438; Burkholderia cepacia, 7438, Concomitant (ME:SM = 1:4)): 8 µg/mL
- MIC (B. cepacia 7438; Burkholderia cepacia, 7438, Concomitant (ME:SM = 2:1)): 1 µg/mL
- MIC (B. cepacia 7438; Burkholderia cepacia, 7438, alone): 16 µg/mL
